Results: the NIST ThermoML archive (doi:10.1021/acs.jced.5b00941)
± gives the expanded uncertainty stated by the source.

What was measured:
[1] = mn = molality of the nth substance listed, in mol/kg; conditions: 100 kPa, Liquid; for viscosity: Falling or rolling sphere viscometry; for mass density: Vibrating tube method
[2] = 100 kPa, Liquid, Falling or rolling sphere viscometry

[Cl-].[K+] [potassium chloride] + O
[1]
Conditions	mass density, 288.15 K [kg/m3]	mass density, 293.15 K [kg/m3]	mass density, 298.15 K [kg/m3]	mass density, 303.15 K [kg/m3]	mass density, 308.15 K [kg/m3]	viscosity, 288.15 K [mPa·s]	viscosity, 293.15 K [mPa·s]	viscosity, 298.15 K [mPa·s]	viscosity, 303.15 K [mPa·s]	viscosity, 308.15 K [mPa·s]
m1 = 0.1	1003.85 ± 1	1002.92 ± 1	1001.71 ± 1	1000.28 ± 1	998.631 ± 1	1.145 ± 0.014	1.01 ± 0.012	0.896 ± 0.011	0.801 ± 0.01	0.722 ± 0.009
m1 = 0.2	1008.58 ± 1	1007.58 ± 1	1006.33 ± 1	1004.85 ± 1	1003.19 ± 1	1.145 ± 0.014	1.01 ± 0.012	0.896 ± 0.011	0.801 ± 0.01	0.723 ± 0.009
m1 = 0.3	1013.16 ± 1	1012.13 ± 1	1010.84 ± 1	1009.34 ± 1	1007.64 ± 1	1.145 ± 0.014	1.011 ± 0.012	0.897 ± 0.011	0.801 ± 0.01	0.726 ± 0.009
m1 = 0.4	1017.86 ± 1	1016.77 ± 1	1015.43 ± 1	1013.89 ± 1	1012.18 ± 1	1.147 ± 0.014	1.013 ± 0.013	0.897 ± 0.011	0.801 ± 0.01	0.73 ± 0.009
m1 = 0.5	1022.32 ± 1	1021.2 ± 1	1019.84 ± 1	1018.27 ± 1	1016.52 ± 1	1.152 ± 0.014	1.027 ± 0.013	0.899 ± 0.011	0.802 ± 0.01	0.73 ± 0.009

[Cl-].[Na+] [sodium chloride] + O
[1]
Conditions	mass density, 288.15 K [kg/m3]	mass density, 293.15 K [kg/m3]	mass density, 298.15 K [kg/m3]	mass density, 303.15 K [kg/m3]	mass density, 308.15 K [kg/m3]	viscosity, 288.15 K [mPa·s]	viscosity, 293.15 K [mPa·s]	viscosity, 298.15 K [mPa·s]	viscosity, 303.15 K [mPa·s]	viscosity, 308.15 K [mPa·s]
m1 = 0.1	1003.32 ± 1	1002.36 ± 1	1001.15 ± 1	999.711 ± 1	998.058 ± 1	1.146 ± 0.014	1.011 ± 0.012	0.892 ± 0.011	0.804 ± 0.01	0.73 ± 0.009
m1 = 0.2	1007.43 ± 1	1006.42 ± 1	1005.14 ± 1	1003.65 ± 1	1001.98 ± 1	1.149 ± 0.014	1.016 ± 0.013	0.901 ± 0.011	0.812 ± 0.01	0.738 ± 0.009
m1 = 0.3	1011.33 ± 1	1010.27 ± 1	1008.96 ± 1	1007.44 ± 1	1005.73 ± 1	1.151 ± 0.014	1.019 ± 0.013	0.91 ± 0.011	0.82 ± 0.01	0.745 ± 0.009
m1 = 0.4	1015.65 ± 1	1014.53 ± 1	1013.16 ± 1	1011.6 ± 1	1009.85 ± 1	1.158 ± 0.014	1.026 ± 0.013	0.917 ± 0.011	0.827 ± 0.01	0.751 ± 0.009
m1 = 0.5	1019.41 ± 1	1018.24 ± 1	–	1015.24 ± 1	1013.48 ± 1	1.165 ± 0.014	1.033 ± 0.013	0.925 ± 0.011	0.834 ± 0.01	0.76 ± 0.009

O [water]
[2]
Conditions	viscosity [mPa·s]
288.15 K	1.145 ± 0.014
293.15 K	1.01 ± 0.012
298.15 K	0.896 ± 0.011
303.15 K	0.801 ± 0.01
308.15 K	0.721 ± 0.009
